The nature of this series: gradient 5% acetonitrile 3 min, to 50% in 2 min, to 85% in 15 min, held 3 min, 100 µL/min. The note with it: column: Zorbax Extend-C18 2.1 x 50 mm; eluents: water / acetonitrile, 0.1% formic acid. The method, boiled down:
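The system's dead and dwell volumes were 40 μL and 900 μL, with a Zorbax Extend-C18 column (2.1 × 50 mm, 1.8 μm) run at 100 μL/min in water and acetonitrile containing 0.1% formic acid each. Pure standards were analyzed in mixtures of ~100 molecules by HPLC–quadrupole time-of-flight mass spectrometry in positive and negative ionization mode. Retention time was assigned from computationally picked, manually inspected adduct peaks.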
The molecule `COC(=O)c1c(NC(=O)CN2C(=O)CCC2=O)sc(Cc2ccc3c(c2)OCO3)c1C` showed an RP-LC retention time of 864 s.

`Cc1c(C(=O)N2CCN(c3ccc(Cl)cc3)CC2)sc2nc[nH]c(=O)c12` gave an RP-LC retention time of 769 s.

In turn, `CCc1ccc(N(CC)C(=O)Cn2cnc3nc4c(cc3c2=O)CCCC4)cc1` yielded an RP-LC retention time of 885 s.

Regarding `O=C(COc1ccc(F)c(F)c1)Nc1cnc(-c2cccnc2)nc1`, the RP-LC retention time stood at 717 s.

`COC(=O)CNC(=O)c1cc2c(=O)n(CC(C)C)c3ccccc3n2n1` gave an RP-LC retention time of 807 s.

Consider `CCOc1cc(C(=O)NCC(=O)Nc2nc3ccccc3[nH]2)cc(OCC)c1OCC`, for which the RP-LC retention time was found to be 715 s.

Consider `O=C(c1cccs1)N1CCCCC1c1nc(-c2ccncc2)no1` (centres undefined), for which the RP-LC retention time was found to be 818 s.

The molecule `O=C(CCC1CCCN(S(=O)(=O)c2ccccc2F)C1)NC1CCCCC1` (centres undefined) came in with an RP-LC retention time of 952 s.

`COc1ccc(-c2noc(C3CCCN3C(=O)COc3ccccc3)n2)cc1` (centres undefined) yielded an RP-LC retention time of 936 s.

`COc1ccc(CNc2ccc(S(=O)(=O)C(C)(C)C)nn2)cc1OC`: the RP-LC retention time was determined as 711 s.

On to `CC(C)Cn1cc(CCNS(=O)(=O)c2ccc(Cl)cc2)c2cccnc21`, for which the RP-LC retention time worked out at 993 s.

Take `CCCn1cc(C(=O)NCc2ccc(N3CCOCC3)cc2)c2cccnc21`: the RP-LC retention time is 734 s.

Take `CC1(C(=O)NCc2ccccc2)CN(S(=O)(=O)c2ccccc2)CC(=O)N1c1ccc(Cl)cc1` (centres undefined): the RP-LC retention time is 956 s.

As to `COCCc1noc(-c2nc(-c3ccccc3F)no2)n1`, the RP-LC retention time amounted to 926 s.

Consider `COc1cc(NC(=O)C2CCCN(c3cc(=O)n(C)c(=O)n3C)C2)cc(OC)c1` (centres undefined), for which the RP-LC retention time is 708 s.

`CCCc1sc(Nc2ccccc2OCC)nc1-c1ccc(Cl)c(Cl)c1` showed an RP-LC retention time of 1030 s.

Molecule `COc1ccc(OC)c(S(=O)(=O)Nc2cc(-c3nc4cccnc4s3)ccc2C)c1` had an RP-LC retention time of 888 s.

For `CC(=O)N1CCCSc2ccc(S(=O)(=O)N(C)c3ccc(C)cc3)cc21`, the RP-LC retention time stood at 937 s.

`O=C(CSc1ncnc2c1nnn2Cc1ccc(F)cc1)N1CCCC1` gave an RP-LC retention time of 764 s.

`CCOC(=O)c1cccc(NC(=O)C2CCCN(c3nnc(C)c4c(C)n(-c5ccccc5)nc34)C2)c1` (centres undefined): the RP-LC retention time was 797 s.

For the molecule `COC(=O)C1=C(C)NC2=C(C(=O)c3ccccc32)C1c1cccc(OC)c1` (centres undefined), the RP-LC retention time was found to be 917 s.

In turn, `Cc1ccc(NC(=O)N2CCN(c3nc4ccccc4nc3C(F)(F)F)CC2)cc1F` came in with an RP-LC retention time of 1150 s.

Consider `Cc1cc(C)c(NC(=O)C2CCN(c3c(C(=O)N4CCCCC4)cnc4snc(C)c34)CC2)c(C)c1`, for which the RP-LC retention time stood at 927 s.

With `CCN(CC)S(=O)(=O)c1ccc2c(c1)N(CC(=O)NCc1cccc(C)c1)C(=O)C1CCCCN21` (centres undefined), the RP-LC retention time is 686 s.

`Cc1cccn2cc(-c3cccc(NS(=O)(=O)c4ccc(Cl)cc4)c3)nc12` returned an RP-LC retention time of 686 s.

With `O=S(=O)(NCCc1c[nH]c2ncccc12)c1ccc(Br)cc1`, the RP-LC retention time stood at 684 s.

Take `COc1ccc(CNC(=O)C2CCCN(c3nnc4cccc(C)n34)C2)c(OC)c1` (centres undefined): the RP-LC retention time came out at 688 s.

Molecule `O=C(NCc1ccsc1)C(=O)NCc1ccccc1Cl` showed an RP-LC retention time of 842 s.

`COc1ccccc1-c1noc(Cn2c(=O)n(-c3cccc(F)c3)c(=O)c3sccc32)n1` yielded an RP-LC retention time of 880 s.

In turn, `Cc1ccnc(N2CCCC(C(=O)NCC3CCN(Cc4ccc(Cl)cc4)CC3)C2)n1` (centres undefined) showed an RP-LC retention time of 624 s.

On to `O=C(c1csc(-c2ccc(N3CCCC3)nc2)n1)N1CCCCC1`, for which the RP-LC retention time turned out to be 613 s.

Take `Cc1ccc(-c2nc3cnc(Br)cn3c2Nc2ccc3c(c2)OCCO3)cc1`: the RP-LC retention time was 956 s.

`Cn1nc(-c2nnc(-c3ccc(F)cc3)o2)c2c1CCN(S(=O)(=O)c1ccc(C(C)(C)C)cc1)C2`: the RP-LC retention time stood at 1180 s.

As to `CC(C)(C)n1nc2c(c1NC(=O)c1cccs1)CS(=O)(=O)C2`, the RP-LC retention time was 690 s.

`O=C(Cn1cccc1-c1nnc(C2CC2)o1)NCCc1ccc(Cl)cc1` had an RP-LC retention time of 862 s.

On to `c1ccc(-c2nc(-c3cccc(-c4ccn[nH]4)c3)no2)nc1`, for which the RP-LC retention time was determined as 739 s.

The molecule `O=C(CCCS(=O)(=O)Cc1ccccc1)Nc1ccc2c(c1)OCCO2` returned an RP-LC retention time of 700 s.

On to `Cc1onc(-c2ccccc2Cl)c1C(=O)Nc1nnc(-c2cccs2)o1`, for which the RP-LC retention time is 767 s.

In turn, `CCN1CCn2cc(S(=O)(=O)Nc3cc(F)ccc3C)cc2C1=O` showed an RP-LC retention time of 725 s.

In turn, `Cc1ccsc1C(=O)Nc1cccn2nc(C(C)C)nc12` registered an RP-LC retention time of 986 s.

`CCn1c(=O)n(CC(=O)N2CCCC2)c(=O)c2cnc(-c3ccc(Cl)cc3)nc21` showed an RP-LC retention time of 1010 s.

Take `O=C(c1ccc(-c2ccc(N3CCCCC3)nc2)cc1)N1CCOCC1`: the RP-LC retention time stood at 607 s.

The molecule `CN(C)C(=O)c1cccc2c1CCN2C(=O)c1ccccc1` came in with an RP-LC retention time of 706 s.

`CCCCN(C)C(=O)C1CCN(c2cc(Oc3ccc(CC)cc3)ncn2)CC1`: the RP-LC retention time was 1060 s.

In the case of `Cc1ccc(NC(=O)NCCn2c(-c3ccncc3)nc3cccnc32)c(C)c1`, the RP-LC retention time was 641 s.

For the molecule `O=C([C@@H]1C[C@H](F)CN1C(=O)Nc1cccc(F)c1)N1CCCCC1`, the RP-LC retention time was determined as 708 s.

For `CS(=O)(=O)Nc1cccc(NC(=O)Cn2cccn2)c1`, the RP-LC retention time worked out at 970 s.

In turn, `CC(C)(C)C(=O)Nc1ccc(SCc2nnc(-c3ccc4c(c3)OCO4)o2)cc1` yielded an RP-LC retention time of 945 s.

In turn, `CC(C)n1c(C2CCN(C(=O)C3CCCO3)CC2)nn(C)c1=O` (centres undefined) displayed an RP-LC retention time of 592 s.

Turning to `CCOC(=O)C1CCC(CNC(=O)N2CCC(c3nc4ccncc4n3C)C2)CC1` (centres undefined), the RP-LC retention time is 548 s.

`O=C(NCC1CCCCC1)c1ccc(-c2nc3cccnc3n2C2CCCCC2)cc1`: the RP-LC retention time is 1130 s.

In the case of `O=C(NCCC1=CCCCC1)C1CCN(Cc2cc3ccccc3n2Cc2ccccc2)CC1`, the RP-LC retention time was 880 s.

Molecule `Cc1ccc(C)c(N2CCN(C(=O)c3[nH]c(C)c(S(=O)(=O)N4CCCC4)c3C)CC2)c1` yielded an RP-LC retention time of 1020 s.

In turn, `COc1ccc(-c2nnc3sc(-c4ccncc4)nn23)cc1OC` registered an RP-LC retention time of 710 s.

`O=C(NCCCN1CCCC1)c1cc2n(n1)CCCN(Cc1ccc(Cl)cc1)C2=O` showed an RP-LC retention time of 640 s.

Take `O=C(Cn1nc(N2CCOCC2)c2ccccc2c1=O)Nc1ccccc1F`: the RP-LC retention time was determined as 790 s.

In the case of `COCC(C)(O)CNC(=O)C(=O)NCc1ccc(C)cc1` (centres undefined), the RP-LC retention time was 674 s.

Regarding `COc1ccc(Cl)cc1C(=O)N1CCC2(CC1)N=C(c1ccc(Br)cc1)NO2`, the RP-LC retention time stood at 959 s.

In turn, `Cc1ccc(Cl)cc1NC(=O)C1CCN(S(C)(=O)=O)c2ccccc2O1` (centres undefined) displayed an RP-LC retention time of 954 s.

The record behind these values is the METLIN SMRT retention time set (Domingo-Almenara et al. 2019).
